Measurements reported in patent publication US4571403A, “Antianginal medicated compound” (Institut Organicheskoi Khimii Imeni N.D. Zelinskogo …, priority 1984, dated 1986).

How the values were obtained:
blood flow in aorta = experiment: volumetric blood flow in the ascending aortic arch, anesthetized cats and dogs; type: in vivo; conditions: 200-500 mg/kg intravenously
Source text: (§1) In experiments on cats and dogs under the general anesthesia conditions the volumetric flow rate of blood flow in the ascending part of the aortic arch has been recorded by the electromagnetic method using an electromagnetic blood flow meter and vessel sensors of appropriate size. On the basis of analysis of the phase curve of the blood flow, the main characteristics of heart activity and hemodynamics have been calculated. […] The averaged data of analysis of phase curves of the blood flow in cat's aorta under general anesthesia conditions (8 tests) are given in the Table hereinbelow.

[1] = test system: activity of heart and hemodynamics; experiment: phase curve analysis of aortic blood flow: activity of heart and hemodynamics in anesthetized cats; type: in vivo; design: Maximum blood flow: unit not given here; conditions: for Time of systolic ejaculation: background 0.14 ± 0.008; for Time of diastolic relaxation: background 0.22 ± 0.01; for Minute work: background 0.88 ± 0.09; for Systolic (beat) volume: background 1.93 ± 0.12; for Maximum blood flow: background 19.7 ± 2.1; for Maximum linear speed: background 35 ± 1.9; for Average arterial pressure: background 148 ± 7.6; for Pulse frequency: background 181 ± 5; for Minute volume: background 372 ± 26
Source text: as §1
Effect of the preparation (250 mg/kg intravenously) on the
activity of heart and basic characteristics of hemodynamics

solubility in water = type: physicochemical; conditions: white crystalline powder
[2] = 5 minutes after 250 mg/kg intravenously
[3] = 10 minutes after 250 mg/kg intravenously
[4] = 20 minutes after 250 mg/kg intravenously
[5] = 40 minutes after 250 mg/kg intravenously

For CN1C(=O)N(C)C2C1N(C)C(=O)N2C (centres unmarked) [the preparation, 2,4,6,8-tetramethyl-2,4,6,8-tetraazobicyclo-/3,3,0/-octanedione-3,7], the “duration of increased blood flow in aorta” value (blood flow in aorta) was 30 to 40 min, the “increase of blood flow in aorta” value (blood flow in aorta) was 50-70% and the tachycardia (blood flow in aorta) was “uncertainly pronounced tachycardia”. The heart function ([1]; 250 mg/kg intravenously) was “capable of increase the heart function”, the “Time of systolic ejaculation” value [1, 2] was 0.12 ± 0.01 s and the “Time of diastolic relaxation” value [1, 2] was 0.22 ± 0.01 s. For the same compound, the Minute work [1, 2] was 1.12 ± 0.15 kgm, the “Systolic (beat) volume” value [1, 2] was 2.22 ± 0.15 mL and the Maximum blood flow [1, 2] was 30 ± 8.2. It also gave a Maximum linear speed [1, 2] of 41 ± 2.7 cm/s, an Average arterial pressure [1, 2] of 137 ± 6.9 mm Hg and a Pulse frequency [1, 2] of 190 ± 6 b/min. The Minute volume [1, 2] was 464 ± 38 mL/min, the “Time of systolic ejaculation” value [1, 3] was 0.11 ± 0.09 s and the “Time of diastolic relaxation” value [1, 3] was 0.21 ± 0.01 s. For the same compound, the Minute work [1, 3] was 1.23 ± 0.11 kgm, the “Systolic (beat) volume” value [1, 3] was 2.34 ± 0.18 mL and the Maximum blood flow [1, 3] was 34 ± 2.6. For the same compound, the Maximum linear speed [1, 3] was 49 ± 2.8 cm/s, the Average arterial pressure [1, 3] was 126 ± 8.1 mm Hg and the Pulse frequency [1, 3] was 197 ± 5 b/min. The Minute volume [1, 3] was 488 ± 43 mL/min, the “Time of systolic ejaculation” value [1, 4] was 0.13 ± 0.01 s and the “Time of diastolic relaxation” value [1, 4] was 0.20 ± 0.01 s. For the same compound, the Minute work [1, 4] was 0.97 ± 0.08 kgm, the “Systolic (beat) volume” value [1, 4] was 2.01 ± 0.15 mL and the Maximum blood flow [1, 4] was 28 ± 1.4. It also gave a Maximum linear speed [1, 4] of 38 ± 2.3 cm/s, an Average arterial pressure [1, 4] of 139 ± 7.4 mm Hg and a Pulse frequency [1, 4] of 191 ± 7 b/min. The Minute volume [1, 4] was 415 ± 32 mL/min, the “Time of systolic ejaculation” value [1, 5] was 0.13 ± 0.008 s and the “Time of diastolic relaxation” value [1, 5] was 0.23 ± 0.009 s. For the same compound, the Minute work [1, 5] was 0.83 ± 0.10 kgm, the “Systolic (beat) volume” value [1, 5] was 1.97 ± 0.12 mL and the Maximum blood flow [1, 5] was 21.4 ± 2.2. For the same compound, the Maximum linear speed [1, 5] was 33. ± 3.1 cm/sec, the Average arterial pressure [1, 5] was 146 ± 8.8 mm Hg and the Pulse frequency [1, 5] was 183 ± 7 b/min. For the same compound, the Minute volume [1, 5] was 397 ± 33 mL/min and the solubility in water (solubility in water) was “well soluble in water”.
